These are literature values, as cited in patent US20060069238A1, “Synthetic glyco-lipo-peptides as vaccines” (Biomira, Inc., priority 2002, published 2006).

For this series the following is noted: n-octanol:water, experimental database of LogKow; cited from earlier work.

`Cc1c[nH]c2ccccc12` [3-methyl indole]: the “LogP Exp” value is 2.60.
